Laboratory results published in patent US4487924A, “2'-N-β-Lysyl) aminoglycosides” (Kowa Company, Ltd., priority 1982, dated 1984).
Values after ≈ are worked out from the molar mass of the structure shown. Where two headings read alike, the source gives them in different places.

Experiments:
Experiment in all cases: Antibiotic activity (MIC), Table 1
Format in all cases: cell-based
S. aureus 209P JC-1 = test system: S. aureus 209P JC-1
S. faecalis Imanari = test system: S. faecalis Imanari
B. subtilis ATCC 6633 = test system: B. subtilis ATCC 6633
E. coli NIHJ JC-2 = test system: E. coli NIHJ JC-2
K. pneumoniae PCI 602 = test system: K. pneumoniae PCI 602
E. cloacae IID 977 = test system: E. cloacae IID 977
S. marcescens NHL = test system: S. marcescens NHL
P. inconstans 93 = test system: P. inconstans 93
P. vulgaris IID 874 = test system: P. vulgaris IID 874
P. aeruginosa NCTC 10490 = test system: P. aeruginosa NCTC 10490
P. cepacia 11D 1340 = test system: P. cepacia 11D 1340
P. maltophilia IID 1275 = test system: P. maltophilia IID 1275
P. putida IID 5121 = test system: P. putida IID 5121
E. coli ML 1410 = test system: E. coli ML 1410
[1] = test system: E. coli ML 1410 R81 (APH(3')-I)
[2] = test system: P. aeruginosa TI 13 (APH(3')-I)
[3] = test system: E. coli ML 1410 R83 (APH(3')-II)
[4] = test system: P. aerugionosa TK-157 (APH(3')-II)
[5] = test system: E. coli ML 1410 R102 (AAD(2"))
[6] = test system: K. pneumoniae 4687 (AAD(2"))
[7] = test system: E. coli ML 1410 R82 (AAD(3"))
[8] = test system: P. aeruginosa GN315 (AAC(6')-IV)
E. coli JR 88 (AAC(3)-I) = test system: E. coli JR 88 (AAC(3)-I)
[9] = test system: P. aeruginosa 99 (AAC(3)-I)
E. coli R176 (AAC(3)-II) = test system: E. coli R176 (AAC(3)-II)
[10] = test system: P. aeruginosa RST-1 (AAC(3)-III)
[11] = test system: P. inconstans GN1554 (AAC(2'))
[12] = Staphylococcus aureus, 209P, read-out: MIC
[13] = Enterococcus faecalis, read-out: MIC
[14] = Bacillus subtilis, ATCC6633, B. subtilis ATCC 6633, read-out: MIC
[15] = Escherichia coli, NIHJJC2, E. coli NIHJ JC-2, read-out: MIC
[16] = Klebsiella pneumoniae, PCI602, K. pneumoniae PCI 602, read-out: MIC
[17] = Enterobacter cloacae, IID977, E. cloacae IID 977, read-out: MIC
[18] = Serratia marcescens, read-out: MIC
[19] = Pseudomonas aeruginosa, NCTC10490, P. aeruginosa NCTC 10490, read-out: MIC
[20] = Burkholderia cepacia, 11D1340, read-out: MIC
[21] = Stenotrophomonas maltophilia, IID1275, P. maltophilia IID 1275, read-out: MIC
[22] = Pseudomonas putida, IID5121, P. putida IID 5121, read-out: MIC
[23] = Escherichia coli, ML1410, E. coli ML 1410, read-out: MIC
[24] = Klebsiella pneumoniae, read-out: MIC
[25] = Pseudomonas aeruginosa, GN315, P. aeruginosa GN315 (AAC(6')-IV), read-out: MIC
[26] = Escherichia coli, read-out: MIC
[27] = Pseudomonas aeruginosa, read-out: MIC
[28] = Providencia alcalifaciens, GN1554, P. inconstans GN1554 (AAC(2')), read-out: MIC

CNC1C(OC)CC(N)C(OC2OC(C(C)N)CCC2N)C1O (stereo not shown) [KA-6606II, reference compound]
MIC (S. aureus 209P JC-1): 25 µg/mL (≈ 75.2 µM) | MIC (S. faecalis Imanari): 100 µg/mL (≈ 301 µM) | MIC (B. subtilis ATCC 6633; B. subtilis ATCC 6633): 6.25 µg/mL (≈ 18.8 µM) | MIC (E. coli NIHJ JC-2; E. coli NIHJ JC-2): 50 µg/mL (≈ 150 µM) | MIC (K. pneumoniae PCI 602; K. pneumoniae PCI 602): > 100 µg/mL | MIC (E. cloacae IID 977; E. cloacae IID 977): > 100 µg/mL | MIC (S. marcescens NHL): 100 µg/mL (≈ 301 µM) | MIC (P. inconstans 93; P. inconstans 93): > 100 µg/mL | MIC (P. vulgaris IID 874; P. vulgaris IID 874): 100 µg/mL (≈ 301 µM) | MIC (P. aeruginosa NCTC 10490; P. aeruginosa NCTC 10490): > 100 µg/mL | MIC (P. cepacia 11D 1340): > 100 µg/mL | MIC (P. maltophilia IID 1275; P. maltophilia IID 1275): > 100 µg/mL | MIC (P. putida IID 5121; P. putida IID 5121): > 100 µg/mL | MIC (E. coli ML 1410; E. coli ML 1410): > 100 µg/mL | MIC [1]: > 100 µg/mL | MIC [2]: > 100 µg/mL | MIC [3]: > 100 µg/mL | MIC [4]: > 100 µg/mL | MIC [5]: > 100 µg/mL | MIC [6]: > 100 µg/mL | MIC [7]: > 100 µg/mL | MIC ([8]; P. aeruginosa GN315 (AAC(6')-IV)): > 100 µg/mL | MIC (E. coli JR 88 (AAC(3)-I)): > 100 µg/mL | MIC [9]: > 100 µg/mL | MIC (E. coli R176 (AAC(3)-II)): > 100 µg/mL | MIC [10]: > 100 µg/mL | MIC ([11]; P. inconstans GN1554 (AAC(2'))): > 100 µg/mL

CNCC1CCC(NC(=O)C[C@@H](N)CCCN)C(OC2C(N)CC(OC)C(NC)C2O)O1 (stereo partly drawn) [2'-N-β-Lysyl KA-7038VI, 2'-N-(L-β-lysyl)-KA-7038VI]
MIC (S. aureus 209P JC-1; [12]): 0.78 µg/mL (≈ 1.69 µM) | MIC (S. faecalis Imanari; [13]): 1.56 µg/mL (≈ 3.39 µM) | MIC (B. subtilis ATCC 6633; [14]): 3.13 µg/mL (≈ 6.8 µM) | MIC (E. coli NIHJ JC-2; [15]): 1.56 µg/mL (≈ 3.39 µM) | MIC (K. pneumoniae PCI 602; [16]): 0.78 µg/mL (≈ 1.69 µM) | MIC (E. cloacae IID 977; [17]): 6.25 µg/mL (≈ 13.6 µM) | MIC (S. marcescens NHL; [18]): 0.78 µg/mL (≈ 1.69 µM) | MIC (P. inconstans 93; Providencia alcalifaciens, 93, P. inconstans 93, read-out: MIC): 0.78 µg/mL (≈ 1.69 µM) | MIC (P. vulgaris IID 874; Proteus vulgaris, IID874, P. vulgaris IID 874, read-out: MIC): 25 µg/mL (≈ 54.3 µM) | MIC (P. aeruginosa NCTC 10490; [19]): 12.5 µg/mL (≈ 27.1 µM) | MIC (P. cepacia 11D 1340; [20]): > 100 µg/mL | MIC (P. maltophilia IID 1275; [21]): 1.56 µg/mL (≈ 3.39 µM) | MIC (P. putida IID 5121; [22]): 12.5 µg/mL (≈ 27.1 µM) | MIC (E. coli ML 1410; [23]): 1.56 µg/mL (≈ 3.39 µM) | MIC ([2]; Pseudomonas aeruginosa): 25 µg/mL (≈ 54.3 µM) | MIC ([4]; read-out: MIC): 25 µg/mL (≈ 54.3 µM) | MIC [6, 24]: 3.13 µg/mL (≈ 6.8 µM) | MIC [8, 25]: 100 µg/mL (≈ 217 µM) | MIC (E. coli JR 88 (AAC(3)-I); [26]): 3.13 µg/mL (≈ 6.8 µM) | MIC [9, 27]: > 100 µg/mL | MIC (E. coli R176 (AAC(3)-II); [26]): 1.56 µg/mL (≈ 3.39 µM) | MIC [10, 27]: > 100 µg/mL | MIC [11, 28]: 0.78 µg/mL (≈ 1.69 µM)

CNC1C(O)CC(N)C(OC2OC(C(C)N)CCC2NC(=O)C[C@@H](N)CCCN)C1O (stereo partly drawn) [2'-N-β-Lysyl 5-de-O-Me KA-6606VIII, 2'-N-(L-β-lysyl)-5-de-O-methyl-KA-6606VIII]
MIC (S. aureus 209P JC-1; [12]): 0.78 µg/mL (≈ 1.75 µM) | MIC (S. faecalis Imanari; [13]): 3.13 µg/mL (≈ 7.01 µM) | MIC (B. subtilis ATCC 6633; [14]): 3.13 µg/mL (≈ 7.01 µM) | MIC (E. coli NIHJ JC-2; [15]): 6.25 µg/mL (≈ 14 µM) | MIC (K. pneumoniae PCI 602; [16]): 0.78 µg/mL (≈ 1.75 µM) | MIC (E. cloacae IID 977; [17]): 25 µg/mL (≈ 56 µM) | MIC (S. marcescens NHL; [18]): 6.25 µg/mL (≈ 14 µM) | MIC (P. inconstans 93; P. inconstans 93): 3.13 µg/mL (≈ 7.01 µM) | MIC (P. vulgaris IID 874; P. vulgaris IID 874): 100 µg/mL (≈ 224 µM) | MIC (P. aeruginosa NCTC 10490; [19]): 50 µg/mL (≈ 112 µM) | MIC (P. cepacia 11D 1340; [20]): > 100 µg/mL | MIC (P. maltophilia IID 1275; [21]): 1.56 µg/mL (≈ 3.49 µM) | MIC (P. putida IID 5121; [22]): 12.5 µg/mL (≈ 28 µM) | MIC (E. coli ML 1410; [23]): 6.25 µg/mL (≈ 14 µM) | MIC ([2]; Pseudomonas aeruginosa): 50 µg/mL (≈ 112 µM) | MIC ([4]; read-out: MIC): 50 µg/mL (≈ 112 µM) | MIC [6, 24]: 12.5 µg/mL (≈ 28 µM) | MIC [8, 25]: > 100 µg/mL | MIC (E. coli JR 88 (AAC(3)-I); [26]): 6.25 µg/mL (≈ 14 µM) | MIC [9, 27]: > 100 µg/mL | MIC (E. coli R176 (AAC(3)-II); [26]): 6.25 µg/mL (≈ 14 µM) | MIC [10, 27]: > 100 µg/mL | MIC [11, 28]: 1.56 µg/mL (≈ 3.49 µM)
